Measurements: ChEMBL document CHEMBL1128152, “Active-site conformation of 17-(3-pyridyl)androsta-5,16-dien-3-ol, a potent inhibitor of the P450 enzyme C17-hydroxylase/C17-20 lyase” (Bioorg Med Chem Lett, 1995)

Molecular target: T1, Steroid 17-alpha-hydroxylase/17,20 lyase (Homo sapiens, UniProt P05093)
T1 sequence (P05093 whole entry): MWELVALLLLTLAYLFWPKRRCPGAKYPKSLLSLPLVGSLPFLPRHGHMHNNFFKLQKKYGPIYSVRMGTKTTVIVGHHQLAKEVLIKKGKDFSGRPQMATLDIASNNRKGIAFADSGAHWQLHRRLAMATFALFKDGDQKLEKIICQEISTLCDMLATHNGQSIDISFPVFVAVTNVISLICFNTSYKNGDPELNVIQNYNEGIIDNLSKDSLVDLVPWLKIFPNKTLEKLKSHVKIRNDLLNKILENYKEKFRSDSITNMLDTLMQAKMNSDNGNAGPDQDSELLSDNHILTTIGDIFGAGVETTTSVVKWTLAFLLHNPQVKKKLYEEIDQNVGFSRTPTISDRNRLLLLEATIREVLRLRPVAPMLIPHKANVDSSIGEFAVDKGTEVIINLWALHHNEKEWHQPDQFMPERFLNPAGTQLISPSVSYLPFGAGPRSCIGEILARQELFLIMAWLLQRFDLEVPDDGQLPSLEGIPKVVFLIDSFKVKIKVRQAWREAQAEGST
Assay: Inhibition of human Steroid 17-alpha-hydroxylase/17,20 lyase

IC50: ~1 nM
SMILES: C[C@]12CC[C@H](O)CC1=CC[C@@H]1[C@@H]2CC[C@]2(C)C(c3cccnc3)=CC[C@@H]12 [ABIRATERONE]
